Earlier results in article PMC11034360 (RSC Advances, 2024).

System: H460, MDA-MB 468, MDA-MB-231 and glioblastoma (BT-33)
Settings: comparison drug for Au(III) complexes; ref 45c

N.N.[Cl][Pt][Cl] [cisplatin]
IC50: 4.16 µM
